{"source": "patent US20210179940A1", "about": "“WIDE TEMPERATURE RANGE AND HIGH PHOTOCHEMICAL STABILITY SMECTIC LIQUID CRYSTAL COMPOSITIONS WITH A MONOLAYER SMECTIC A PHASE (SMA1), METHOD OF OBTAINING THEREOF AND DEVICES UTILIZING THEREOF” (WOJSKOWA AKADEMIA TECHNICZNA, priority 2017, published 2021)", "key": {"[1]": {"assay": "solubility of ionic compounds in fluorobenzene", "protocol": "Fluorobenzene was used as solvent because it is chemically similar to the liquid crystalline composition used here.\nThe examination was made in the following way: always the same mole amount of a ionic compound (0.00004 mol) was placed in 2 cm^3 of fluorobenzene. The mixture was mixed to dissolve the compound or to obtain equilibrium between the saturated solution and the solid. When a part of the compound was dissolved only, the sample of the saturated solution was taken (0.5 ml). The solvent was evaporated to dryness, the rest was weighted. Knowing the residue amount, the solubility was calculated."}, "[2]": {"assay": "resistivity of fluorobenzene solutions of ionic compounds (bridge method)", "type": "physicochemical", "conditions": "for resistivity 10 kHz / resistivity 50 Hz: solution in C6H5F, 25° C.", "protocol": "The resistivity of the solution was measured by the bridge method using a Wyne Kerr Precision Component Analyzer 6425 and the measuring cells with electrodes of active area of 12.7 mm×12.7 mm. The electrodes were made of ITO. No orienting layers were deposited. The cell formed with two substrates with electrodes mentioned above was filled with the solution by capillary forces. The gap between electrodes was approx. 14.6 μm."}, "[3]": {"assay": "conductivity of doped smectic A composition 18 in 15 μm cell", "type": "physicochemical", "conditions": "prepared in fluorobenzene, 100 Hz, RT", "description": "The glass cells with a gap of 15 μm filled with the liquid crystal composition were used to measure conductivity and such a parameters of the DS effect as threshold voltage and saturation voltage. […] The orienting layer providing a homeotropic orientation of the molecular director of the smectic composition was obtained using a thin layer of SE1211 (by Nissan Chem.) polyimide, which was deposited on ITO electrodes with a spincoating method, then dried and cured. The testing cells were filled with the liquid crystals composition from the isotropic phase, and they were cooled to the room temperature (RT) and closed.\nThe components were carefully mixed and then heated to temperature of 90° C. to evaporate the solvent. Then heating was continued under lower pressure (at 0.2 mmHg) for the total removal of the solvent and the composition was carefully mixed by shaking it at the isotropic state. […]"}, "[4]": {"assay": "solubility in organic solvents noted at synthesis", "type": "physicochemical", "conditions": "solvents named in the value"}, "[5]": {"assay": "conductivity of doped smectic A composition 21 in 15 μm cell", "type": "physicochemical", "conditions": "RT", "description": "The glass cells with a gap of 15 μm filled with the liquid crystal composition were used to measure conductivity and such a parameters of the DS effect as threshold voltage and saturation voltage. Transparent electrodes were formed from indium-tin oxide (ITO) of specific resistivity 100 Ohm/cm^2 and with surface 1.27×1.27 cm^2. The orienting layer providing a homeotropic orientation of the molecular director of the smectic composition was obtained using a thin layer of SE1211 (by Nissan Chem.) polyimide, which was deposited on ITO electrodes with a spincoating method, then dried and cured. The testing cells were filled with the liquid crystals composition from the isotropic phase, and they were cooled to the room temperature (RT) and closed.\nIn Table 6 the properties of the composition 21 doped with an amidinium salt or potassium complex of a crown ether are compared. The composition 21 has the phase sequence Cr-SmA1-N-Iso and the higher value of dielectric anisotropy than composition 18."}, "[6]": {"conditions": "composition 18, dopant 8.78 · 10^−3 mol/kg"}, "[7]": {"conditions": "composition 18, dopant 6.58 · 10^−3 mol/kg"}, "[8]": {"conditions": "composition 21, dopant 6.58 · 10^−3 mol/kg, f = 100 Hz"}}, "note": "Like-named read-outs stand apart in the source and are kept apart here.", "data": [{"compound": "1-hexadecyl-1,8-diazabicyclo[5,4,0]undec-7-enium 3,5-difluoro-4-cyanophenolate [II.16n]", "values": [{"measurement": "solubility in C6H5F", "setting": "[1]", "value": ">0.02", "unit": "mol/dcm^3"}, {"measurement": "resistivity 10 kHz", "setting": "[2]", "value": "3.8 · 10^5 Ohm · cm"}, {"measurement": "resistivity 50 Hz", "setting": "[2]", "value": "3.9 · 10^5 Ohm · cm"}, {"measurement": "resistivity of I.16b, times higher than that of the compound", "setting": "[2]; solution in fluorobenzene", "value": 140, "unit": "times"}, {"measurement": "conductivity σ", "setting": "[3]; [6]", "value": "1.8 · 10^−8 Ohm^−1cm^−1"}]}, {"compound": "[K+].[O-]c1ccc(F)c(F)c1.c1ccc2c(c1)OCCOCCOc1ccccc1OCCOCCO2", "note": "[IVk, complex of dibenzo-18-crown-6 ether with potassium 3,4-difluorophenolate]", "values": [{"measurement": "solubility in C6H5F", "setting": "[1]; fluorobenzene, 25° C.", "value": "> 0.02", "unit": "mol/dcm^3"}, {"measurement": "resistivity 10 kHz", "setting": "[2]", "value": "0.95 · 10^6 Ohm · cm"}, {"measurement": "resistivity 50 Hz", "setting": "[2]", "value": "1.1 · 10^6 Ohm · cm"}, {"measurement": "conductivity σ", "setting": "[3]; [6]", "value": "4.1 · 10^−9 Ohm^−1cm^−1"}]}, {"compound": "N#Cc1c(F)cc([O-])cc1F.[K+].c1ccc2c(c1)OCCOCCOc1ccccc1OCCOCCO2", "note": "[IVn, complex of dibenzo-18-crown-6 ether with potassium 3,5-difluoro-4-cyanophenolate]", "values": [{"measurement": "solubility in C6H5F", "setting": "[1]; fluorobenzene, 25° C.", "value": ">0.02", "unit": "mol/dcm^3"}, {"measurement": "resistivity 10 kHz", "setting": "[2]", "value": "4.6 · 10^5 Ohm · cm"}, {"measurement": "resistivity 50 Hz", "setting": "[2]", "value": "4.2 · 10^5 Ohm · cm"}, {"measurement": "conductivity σ", "setting": "[3]; composition 18, dopant 2.19 · 10^−3 mol/kg", "value": "2.19 · 10^−9 Ohm^−1cm^−1"}, {"measurement": "conductivity σ", "setting": "[3]; [6]", "value": "8.1 · 10^−9 Ohm^−1cm^−1"}]}, {"compound": "CCCCCCCCCCCCCCCC[N+]1=C2CCCCCN2CCC1", "note": "[II.16b, 1-hexadecyl-1,8-diazabicyclo[5.4.0]undec-7-enium bromide]", "values": [{"measurement": "solubility in C6H5F", "setting": "[1]", "value": ">0.02 >0.02 >0.02 >0.02 mol/dcm^3"}, {"measurement": "solubility", "setting": "[4]", "value": "well soluble in methanol and chloroform"}]}, {"compound": "CC[N+]12CCCCCC1=NCCC2.[Br-]", "note": "(stereo not shown) [II.2b, 1-ethyl-1,8-diazabicyclo[5.4.0] undec-7-enium bromide]", "values": [{"measurement": "solubility in C6H5F", "setting": "[1]; fluorobenzene, 25° C.", "value": 0.0077, "unit": "mol/dcm^3"}, {"measurement": "solubility", "setting": "[4]", "value": "well soluble in ethanol and ethyl acetate"}, {"measurement": "conductivity σ", "setting": "[3]; [7]", "value": "3.0 · 10^−9 Ohm^−1cm^−1"}]}, {"compound": "complex of 18-crown-6 ether with potassium bromide [IIIb]", "values": [{"measurement": "conductivity σ", "setting": "[3]; [7]", "value": "1.1 · 10^−9 Ohm^−1cm^−1"}]}, {"compound": "CCCCCCCCCCCCCCCC[N+]1=C2CCCCCN2CCC1", "note": "[II.16d, 1-hexadecyl-1,8-diazabicyclo[5.4.0]undec-7-enium 1,1,1-trifluoromethanesulphonate]", "values": [{"measurement": "solubility in C6H5F", "setting": "[1]", "value": ">0.02 >0.02 >0.02 >0.02 mol/dcm^3"}]}, {"compound": "CCCCCCCCc1ccc([O-])cc1.[K+].c1ccc2c(c1)OCCOCCOc1ccccc1OCCOCCO2", "note": "[IVh8, complex of dibenzo-18-crown-6 ether with potassium 4-octylphenolate]", "values": [{"measurement": "solubility in C6H5F", "setting": "[1]; fluorobenzene, 25° C.", "value": 0.0107, "unit": "mol/dcm^3"}, {"measurement": "conductivity σ", "setting": "[3]; [6]", "value": "1.4 · 10^−10 Ohm^−1cm^−1"}]}, {"compound": "CCCCCCCCCCCCc1ccc(S(=O)(=O)[O-])cc1.[K+].c1ccc2c(c1)OCCOCCOc1ccccc1OCCOCCO2", "note": "[IVg12, Complex of dibenzo-18-crown-6 ether with potassium 4-dodecylbenzenesulphonate]", "values": [{"measurement": "solubility in C6H5F", "setting": "[1]; fluorobenzene, 25° C.", "value": ">0.02", "unit": "mol/dcm^3"}, {"measurement": "resistivity 10 kHz", "setting": "[2]", "value": "4.5 · 10^5 Ohm · cm"}, {"measurement": "resistivity 50 Hz", "setting": "[2]", "value": "6.0 · 10^5 Ohm · cm"}, {"measurement": "conductivity σ", "setting": "[3]; [6]", "value": "2.7 · 10^−10 Ohm^−1cm^−1"}, {"measurement": "specific conductivity σ", "setting": "[5]; [8]", "value": "4.68 · 10^−10 Ohm^−1cm^−1"}]}, {"compound": "complex of dibenzo-18-crown-6 ether with potassium chlorate (VII) [IVc]", "values": [{"measurement": "solubility in C6H5F", "setting": "[1]; fluorobenzene, 25° C.", "value": "< 0.002", "unit": "mol/dcm^3"}, {"measurement": "resistivity 10 kHz", "setting": "[2]", "value": "2.9 · 10^7 Ohm · cm"}, {"measurement": "resistivity 50 Hz", "setting": "[2]", "value": "4.2 · 10^7 Ohm · cm"}, {"measurement": "resistivity", "setting": "[2]; solution in fluorobenzene, frequency not stated", "value": "4.2·10^7 Ohm·cm"}, {"measurement": "conductivity σ", "setting": "[3]; [6]", "value": "1.5 · 10^−10 Ohm^−1cm^−1"}]}, {"compound": "complex of 18-crown-6 ether with sodium dodecyl-1-sulphonate [V.e12]", "values": [{"measurement": "conductivity σ", "setting": "[3]; [7]", "value": "3.7 · 10^−10 Ohm^−1cm^−1"}]}, {"compound": "1-hexadecyl-1,8-diazabicyclo[5.4.0]undec-7-enium 4-dodecylbenzenesulphonate [II.16g12]", "values": [{"measurement": "solubility in C6H5F", "setting": "[1]; fluorobenzene, 25° C.", "value": ">0.02", "unit": "mol/dcm^3"}, {"measurement": "resistivity 10 kHz", "setting": "[2]", "value": "1.9 · 10^6 Ohm · cm"}, {"measurement": "resistivity 50 Hz", "setting": "[2]", "value": "2.1 · 10^6 Ohm · cm"}, {"measurement": "conductivity σ", "setting": "[3]; [6]", "value": "1.1 · 10^−9 Ohm^−1cm^−1"}, {"measurement": "specific conductivity σ", "setting": "[5]; [8]", "value": "7.42 · 10^−10 Ohm^−1cm^−1"}]}, {"compound": "CCCCCCCCCCCCCCCC[N+]1=C2CCCCCN2CCC1", "note": "[II.16c, 1-Hexadecyl-1,8-diazabicyclo[5.4.0]undec-7-enium chlorate (VII)]", "values": [{"measurement": "solubility in C6H5F", "setting": "[1]", "value": ">0.02 >0.02 >0.02 >0.02 mol/dcm^3"}, {"measurement": "resistivity 10 kHz", "setting": "[2]", "value": "0.84 · 10^6 Ohm · cm"}, {"measurement": "resistivity 50 Hz", "setting": "[2]", "value": "1.0 · 10^6 Ohm · cm"}, {"measurement": "solubility", "setting": "[4]", "value": "well soluble in methanol and ethyl acetate"}, {"measurement": "conductivity σ", "setting": "[3]; [6]", "value": "4.6 · 10^−10 Ohm^−1cm^−1"}]}, {"compound": "C1COCCOCCOCCOCCOCCO1.CCCCCCCCCCCCc1ccc(S(=O)(=O)[O-])cc1.[K+]", "note": "[III.g12, complex of 18-crown-6 ether with potassium 4-dodecylbenzenesulphonate]", "values": [{"measurement": "solubility in C6H5F", "setting": "[1]; fluorobenzene, 25° C.", "value": ">0.02", "unit": "mol/dcm^3"}, {"measurement": "specific conductivity σ", "setting": "[5]; composition 21, 0.1 wt % dopant + 0.3 wt % stabilizer of formula 29, f = 100 Hz", "value": "7.0 · 10^−9 Ohm^−1cm^−1"}]}, {"compound": "C1COCCOCCOCCOCCOCCO1.[K+].[O-]c1ccc(F)c(F)c1", "note": "[IIIk, complex of 18-crown-6 ether with potassium 3,4-difluorophenolate]", "values": [{"measurement": "solubility in C6H5F", "setting": "[1]; fluorobenzene, 25° C.", "value": "> 0.02", "unit": "mol/dcm^3"}, {"measurement": "conductivity σ", "setting": "[3]; [7]", "value": "2.7 · 10^−9 Ohm^−1cm^−1"}, {"measurement": "conductivity σ", "setting": "[3]; composition 18, dopant 6.58 · 10^−3 mol/kg, listed as III.k", "value": "2.7·10^−9 Ohm^−1cm^−1"}]}, {"compound": "1-hexadecyl-1,8-diazabicyclo[5.4.0]undec-7-enium 3,4-difluorophenolate [II.16k]", "values": [{"measurement": "solubility in C6H5F", "setting": "[1]", "value": ">0.02 >0.02 >0.02 >0.02 mol/dcm^3"}]}, {"compound": "CCCCCCCCCCCCCCCC[N+](C)(C)C.[Br-]", "note": "[I.16b, hexadecyltrimethylammonium bromide, reference compound]", "values": [{"measurement": "solubility compared with the ionic compounds of the disclosure", "setting": "[1]", "value": "lower at least ten times"}, {"measurement": "solubility in C6H5F", "setting": "[1]", "value": 0.00274, "unit": "mol/dcm^3"}, {"measurement": "resistivity 10 kHz", "setting": "[2]", "value": "5.2 · 10^7 Ohm · cm"}, {"measurement": "resistivity 50 Hz", "setting": "[2]", "value": "5.0 · 10^7 Ohm · cm"}]}, {"compound": "complex of dibenzo-18-crown-6 ether with potassium bromide [IVb]", "values": [{"measurement": "conductivity σ", "setting": "[3]; [7]", "value": "2.2 · 10^−10 Ohm^−1cm^−1"}]}]}
